According to patent US20230331715A1, “SPIRO[3.3]HEPTANE DERIVATIVES FOR THE TREATMENT AND PROPHYLAXIS OF HEPATITIS B VIRUS INFECTION” (priority 2020, published 2023):
Read-outs that look alike come from different tables or passages of the source.

What was measured:
Format in all cases: cell-based
HBsAg = test: PHH HBV natural infection assay, HBsAg (alphalisa)
Procedure: (§1) Detailed procedures regarding primary human hepatocyte (PHH) HBV natural infection assay are described as below. One tube of frozen PHH (10 million cells) is thawed in 37° C. water bath and then transferred to 20 mL of PHH thawing medium (Sigma, InVitroGRO HT Medium, Cat. S03319) with gently mixing. The cells were then centrifuged at […] for 5 min, the supernatant was discarded and the tube was refilled with 25 mL of PHH plating medium (Sigma, InVitroGRO CP Medium, Cat. S03317). The tube was shaken very gently to re-suspend all cells, and then 50 µl of cells were transferred to each well 384-well collagen I coated plate with appropriate liquid handling equipment, e.g. Integra VIAFLO384 or Agilent Bravo. The cells were then cultured for 24 hours in a cell incubator. For HBV infection, after PHH attachment on the culture plate, the plating medium was removed and replenished with PHH culture medium containing HBV virus. The PHH culture medium was prepared with Dulbecco’s Modified Eagle Medium (DMEM)/F12 (1: 1 in volume ratio) containing 10% fetal bovine serum (Gibco, Cat. 10099141), 5 ng/mL human epidermal growth factor (Gibco, Cat.PHG0311L), 20 ng/mL dexamethasone (Sigma, Cat.D4902-100mg), 250 ng/mL human recombinant insulin (Gibco, Cat.41400045) and 100 U/mL penicillin. HBV virus at 200 genome equivalent (GE) per cell with 4% PEG8000 (Sigma, Cat.P1458) containing culture medium were added to the PHH culture medium for infection. The cells were then cultured for 24 hours in cell incubator. Then the cell culture supernatant was removed. The HBV-infected PHH were cultured with sandwich culture method with PHH culture medium containing 1% DMSO and 0.25 mg/mL matrix gel for 72 hours. The supernatant was then refreshed with PHH culture medium containing different concentrations of testing compounds for two times with 72-hour interval. At the end of treatment, the supernatant was collected for viral markers measurements, including HBsAg, HBeAg, HBV DNA and cytotoxicity. HBsAg and HBeAg were detected using alphalisa method using their specific antibodies. For HBV DNA detection, HBV DNA Quantitative Fluorescence Diagnostic Kit (Sansure Biotech Inc.) was used following the manufacture’s protocol. Cytotoxicity was determined using Cell Counting Kit-8 (CCK8, Dojindo Molecular Technologies, Inc.).
(§2) The compounds of the present invention were tested for their capacity to inhibit HBsAg and HBeAg as described herein.

HBeAg = test: PHH HBV natural infection assay, HBeAg (alphalisa)
Procedure: as §1, §2

[1] = Cytotoxicity in PHH natural infection assay (Cell Counting Kit-8); details: human; HBV-infected PHH, CCK8, compound refreshed two times with 72-hour interval
Procedure: as §1

[2] = Hepatitis B virus, 72 h, read-out: HBsAg IC50, HBV-infected PHH, culture supernatant, compound refreshed two times with 72-hour interval, alphalisa
[3] = Hepatitis B virus, 72 h, read-out: HBeAg IC50, HBV-infected PHH, culture supernatant, compound refreshed two times with 72-hour interval, alphalisa
[4] = read-out: HBsAg IC50, HBV-infected PHH, culture supernatant, compound refreshed two times with 72-hour interval, alphalisa
[5] = read-out: HBeAg IC50, HBV-infected PHH, culture supernatant, compound refreshed two times with 72-hour interval, alphalisa

SMILES	IC50 (HBsAg; [2]) [µM]	IC50 (HBeAg; [3]) [µM]	CC50 at 144 h [1] [µM]	IC50 (HBsAg; [4]) [µM]	IC50 (HBeAg; [5]) [µM]
O=C(NC1CC2(C1)CC(c1nc3cc(Cl)ccc3s1)C2)C1CS(=O)(=O)C1 (stereo not drawn) [Example 25, N-[6-(5-chloro-1,3-benzothiazol-2-yl)spiro[3.3]heptan-2-yl]-1,1-dioxo-thietane-3-carboxamide]	2.59	2.07	> 10	–	–
CN1CCC(C(=O)NC2CC3(C2)CC(c2nc4cc(Cl)ccc4s2)C3)CC1=O (stereo not drawn) [Example 32, N-[6-(5-chloro-1,3-benzothiazol-2-yl)spiro[3.3]heptan-2-yl]-1-methyl-2-oxo-piperidine-4-carboxamide]	6.11	4.13	> 10	–	–
O=C1CCC(CC(=O)NC2CC3(C2)CC(c2nc4cc(Cl)ccc4s2)C3)N1 (stereo not drawn) [Example 33, N-[6-(5-chloro-1,3-benzothiazol-2-yl)spiro[3.3]heptan-2-yl]-2-(5-oxopyrrolidin-2-yl)acetamide]	4.08	4.12	> 10	–	–
O=C(NC1CC2(C1)CC(c1nc3cc(Cl)ccc3s1)C2)c1ccc(S(=O)(=O)N2CCC2)o1 (stereo not drawn) [Example 20, 5-(azetidin-1-ylsulfonyl)-N-[6-(5-chloro-1,3-benzothiazol-2-yl)spiro[3.3]heptan-2-yl]furan-2-carboxamide]	4.88	4.06	> 10	–	–
[H][C@]1(NC(=O)c2ccnc(S(=O)(=O)C3CC3)c2)C[C@@]2(C1)C[C@]([H])(c1nc3cc(Cl)ccc3s1)C2 (single isomer, unassigned) [Example 55-a, (Sa)-N-[6-(5-chloro-1,3-benzothiazol-2-yl)spiro[3.3]heptan-2-yl]-2-cyclopropylsulfonyl-pyridine-4-carboxamide]	–	–	22.5	1.56	1.09
CS(=N)(=O)c1cc(C(=O)NC2CC3(C2)CC(c2nc4cc(Cl)ccc4s2)C3)ccn1 (stereo not drawn) [Example 40, N-[6-(5-chloro-1,3-benzothiazol-2-yl)spiro[3.3]heptan-2-yl]-2-(methylsulfonimidoyl)pyridine-4-carboxamide]	2.53	2.41	> 10	–	–
N#Cc1cc(C(=O)NC2CC3(C2)CC(c2nc4cc(Cl)ccc4s2)C3)ccn1 (stereo not drawn) [Example 5, N-[6-(5-chloro-1,3-benzothiazol-2-yl)spiro[3.3]heptan-2-yl]-2-cyano-pyridine-4-carboxamide]	3.47	2.92	> 10	–	–
[H][C@]1(NC(=O)c2cc(C(N)=O)ncn2)C[C@]2(C1)C[C@]([H])(c1nc3cc(Cl)ccc3s1)C2 (single isomer, unassigned) [Example 56-b, (Ra)-N6-[6-(5-chloro-1,3-benzothiazol-2-yl)spiro[3.3]heptan-2-yl]pyrimidine-4,6-dicarboxamide]	–	–	> 10	3.3	2.27
O=C(NC1CC2(C1)CC(c1nc3ccc(Cl)cc3s1)C2)c1ccnc(S(=O)(=O)C2CC2)c1 (stereo not drawn) [Example 37, N-[6-(6-chloro-1,3-benzothiazol-2-yl)spiro[3.3]heptan-2-yl]-2-cyclopropylsulfonyl-pyridine-4-carboxamide]	0.23	0.2	10.1	–	–
O=C(NC1CC2(C1)CC(c1nc3cc(Cl)ccc3s1)C2)c1cccc(C(F)(F)F)c1 (stereo not drawn) [Example 1, N-[6-(5-chloro-1,3-benzothiazol-2-yl)spiro[3.3]heptan-2-yl]-3-(trifluoromethyl)benzamide]	6.55	4.53	> 10	–	–
Nc1nc(C(=O)NC2CC3(C2)CC(c2nc4cc(Cl)ccc4s2)C3)cs1 (stereo not drawn) [Example 19, 2-amino-N-[6-(5-chloro-1,3-benzothiazol-2-yl)spiro[3.3]heptan-2-yl]thiazole-4-carboxamide]	7.55	6.83	31.5	–	–
O=C(NC1CC2(C1)CC(c1nc3cc(Cl)ccc3s1)C2)c1ccc(S(=O)(=O)C2CC2)o1 (stereo not drawn) [Example 13, N-[6-(5-chloro-1,3-benzothiazol-2-yl)spiro[3.3]heptan-2-yl]-5-cyclopropylsulfonyl-furan-2-carboxamide]	0.48	0.36	94.9	–	–
CCS(=O)(=O)c1cc(C(=O)NC2CC3(C2)CC(c2nc4cc(Cl)ccc4s2)C3)ccn1 (stereo not drawn) [Example 9, N-[6-(5-chloro-1,3-benzothiazol-2-yl)spiro[3.3]heptan-2-yl]-2-ethylsulfonyl-pyridine-4-carboxamide]	1.35	1.21	13.4	–	–
CN(C)c1cc(C(=O)NC2CC3(C2)CC(c2nc4cc(Cl)ccc4s2)C3)ccn1 (stereo not drawn) [Example 46, N-[6-(5-chloro-1,3-benzothiazol-2-yl)spiro[3.3]heptan-2-yl]-2-(dimethylamino)pyridine-4-carboxamide]	4.2	3.35	> 10	–	–
O=C(NC1CC2(C1)CC(c1nc3ccc(Cl)cc3s1)C2)c1ccc(C(F)(F)F)o1 (stereo not drawn) [Example 15, N-[6-(6-chloro-1,3-benzothiazol-2-yl)spiro[3.3]heptan-2-yl]-5-(trifluoromethyl)furan-2-carboxamide]	2.96	2.07	> 100	–	–
O=C(CN1CCCCS1(=O)=O)NC1CC2(C1)CC(c1nc3cc(Cl)ccc3s1)C2 (stereo not drawn) [Example 35, N-[6-(5-chloro-1,3-benzothiazol-2-yl)spiro[3.3]heptan-2-yl]-2-(1,1-dioxothiazinan-2-yl)acetamide]	3.18	2.98	> 10	–	–
O=C(NC1CC2(C1)CC(c1nc3cc(Cl)ccc3s1)C2)c1ccc(S(=O)(=O)N2CC(F)(F)C2)o1 (stereo not drawn) [Example 21, N-[6-(5-chloro-1,3-benzothiazol-2-yl)spiro[3.3]heptan-2-yl]-5-(3,3-difluoroazetidin-1-yl)sulfonyl-furan-2-carboxamide]	1.49	1.14	> 10	–	–
CC(c1ccc(C(=O)NC2CC3(C2)CC(c2nc4cc(Cl)ccc4s2)C3)o1)S(C)(=O)=O (stereo not drawn) [Example 16, N-[6-(5-chloro-1,3-benzothiazol-2-yl)spiro[3.3]heptan-2-yl]-5-(1-methylsulfonylethyl)furan-2-carboxamide]	2.69	1.92	23.9	–	–
O=C(NC1CC2(C1)CC(c1nc3cc(Cl)ccc3s1)C2)C1CCS(=O)(=O)C1 (stereo not drawn) [Example 26, N-[6-(5-chloro-1,3-benzothiazol-2-yl)spiro[3.3]heptan-2-yl]-1,1-dioxo-thiolane-3-carboxamide]	1.99	1.18	> 100	–	–
O=C(NC1CC2(C1)CC(c1nc3cc(Cl)ccc3s1)C2)C1CCS(=O)(=O)N1 (stereo not drawn) [Example 34, N-[6-(5-chloro-1,3-benzothiazol-2-yl)spiro[3.3]heptan-2-yl]-1,1-dioxo-1,2-thiazolidine-3-carboxamide]	7.11	5.67	> 10	–	–
NC(=O)Nc1cc(C(=O)NC2CC3(C2)CC(c2nc4cc(Cl)ccc4s2)C3)ccn1 (stereo not drawn) [Example 10, N-[6-(5-chloro-1,3-benzothiazol-2-yl)spiro[3.3]heptan-2-yl]-2-ureido-pyridine-4-carboxamide]	7.7	8.43	> 50	–	–
